“Also recorded” adds a separate entry of the source. Read-outs that look alike come from different tables or passages of the source. Positions of bridges follow the written chain, without caps; N, C: chain ends. No end group written: not given here.
What was measured:
NaV1.8 = settings: cited from earlier work
From the text: (§1) The pharmacology of ASIC3 is still relatively poorly understood when compared with voltage-gated sodium (NaV) and calcium (CaV) channels. Thus, the characterization of, and development of structure-activity relationships for, selective ASIC3 modulators will be useful for characterizing the function of ASIC3 under both normal and pathophysiological conditions.

[1] = tested on: ASIC3-containing channels (ASIC3, ASIC3/1a, ASIC3/1b, ASIC3/2b); settings: cited from earlier work
From the text: as §1, with “conditions. […] The majority of currently known inhibitors of ASIC3 (e.g., gadolinium, a ...” for “conditions.”

rodent pain models = settings: cited from earlier work
From the text: as §1, with “conditions. […] The majority of currently known inhibitors of ASIC3 (e.g., gadolinium, a ...” for “conditions.”

ASIC3 = settings: cited from earlier work; for potency and specificity of ASIC3 inhibition (in words): statement on the majority of currently known inhibitors of ASIC3
From the text: Acid-sensing ion channels (ASICs) are proton-gated sodium channels present in the central and peripheral nervous system of chordates. ASIC3 is highly expressed in sensory neurons and plays an important role in inflammatory and ischemic pain. Thus, specific inhibitors of ASIC3 have the potential to be developed as novel analgesics. […] However, the mechanism of action of APETx2 and the molecular basis for its interaction with ASIC3 is not known. In order to assis ... || The pharmacology of ASIC3 is still relatively poorly understood when compared with voltage-gated sodium (NaV) and calcium (CaV) channels. Thus, the characterization of, and development of structure-activity relationships for, selective ASIC3 modulators will be useful for characterizing the function of ASIC3 under both normal and pathophysiological conditions.

[2] = tested on: acid-induced and post-operative pain in rats; design: method as in PMID 18923424, PMID 21508231, PMID 20860671; settings: cited from earlier work
rat ASIC3 = biological target: T1, rat ASIC3 (Rattus norvegicus, UniProt O35240); assay: Inhibition of homomeric rat ASIC3 currents in Xenopus oocytes (two-electrode voltage clamp); type: cell-based; settings: rat ASIC3 in Xenopus laevis oocytes; pH drop from 7.4 to 6.0 every minute; -60 mV; RT (18–21 °C); ND96 with 0.1% BSA; pH 6 stimulus buffered with MES
T1 construct: expressed in transfected cells; host or cells: Xenopus laevis oocytes (cRNA injection)
T1 sequence (O35240 1-533): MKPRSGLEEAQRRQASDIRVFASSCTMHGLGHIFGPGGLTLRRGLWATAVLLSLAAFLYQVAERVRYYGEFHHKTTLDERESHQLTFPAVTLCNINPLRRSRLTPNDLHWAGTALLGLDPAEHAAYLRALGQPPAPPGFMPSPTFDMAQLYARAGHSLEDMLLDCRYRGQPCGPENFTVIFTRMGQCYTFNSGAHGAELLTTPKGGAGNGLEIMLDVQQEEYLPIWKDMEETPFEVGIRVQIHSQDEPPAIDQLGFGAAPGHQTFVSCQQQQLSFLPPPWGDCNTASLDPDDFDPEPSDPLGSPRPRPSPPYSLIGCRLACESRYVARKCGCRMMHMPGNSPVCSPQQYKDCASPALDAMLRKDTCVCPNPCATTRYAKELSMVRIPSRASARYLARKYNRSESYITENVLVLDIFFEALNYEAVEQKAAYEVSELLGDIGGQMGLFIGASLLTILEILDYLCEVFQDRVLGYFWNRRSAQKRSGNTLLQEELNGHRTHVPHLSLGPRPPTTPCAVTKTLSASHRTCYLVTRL
Protocol: The efficacy of rAPETx2 was tested on rat ASIC3 expressed in Xenopus laevis oocytes.
Figure 4 (A) Representative current traces comparing the concentration-dependent inhibition of rat ASIC3 (expressed in Xenopus oocytes) by synthetic (s) and recombinant (r) APETx2. (B) Concentration-effect curves for sAPETx2 and an rAPETx2–F15A mutant.
Oocytes were obtained from Xenopus laevis and defolliculatd by treatment with collagenase (Sigma type I). Rat ASIC3 cRNA was synthesised using an mMessage mMachine cRNA transcription kit and healthy stage V–VI oocytes injected with 4 ng rat ASIC3 cRNA (40 nL of 100 ng/μL). Oocytes were kept at 17 °C in ND96 solution (96 mM NaCl, 2 mM KCl, 1 mM CaCl2, 2 mM MgCl2, 5 mM HEPES, 5 mM pyruvic acid, 50 µg/mL gentamicin, 2.5% fetal horse serum, pH 7.4). Membrane currents were recorded 2–6 days post cRNA injection under voltage-clamp (Axoclamp 900A amplifier, Molecular Devices, Sunnyvale, CA, USA) using two standard glass microelectrodes with resistances of 0.5–1 MΩ when filled with 3 M KCl solution. Data acquisition and analysis were performed using pCLAMP software (Version 10, Molecular Devices, Sunnyvale, CA, USA). Oocytes were clamped at −60 mV with data sampled at 1000 Hz and filtered at […]. All experiments were performed at RT (18–21 °C) in ND96 solution containing 0.1% fatty acid free-bovine serum albumin (BSA). […]

APETx2
inhibition of NaV1.8 (in words) (NaV1.8): inhibits NaV 1.8
potency on NaV1.8 relative to ASIC3 (in words) (NaV1.8; compared with ASIC3): lower potency than for ASIC3
IC50 ([1]; homomeric ASIC3, read-out: IC50 for homomeric ASIC3): ~60 nM
IC50 ([1]; upper end of range, depending on the subunit composition of the channel, read-out: IC50 for ASIC3-containing channels (upper end)): ≤ 2000 nM
analgesic effect in rodent pain models (in words) (rodent pain models): analgesic in rodent pain models
potency and selectivity for ASIC3 (in words) (ASIC3; ASIC3 / ASIC3-containing channels): most potent and selective inhibitor of ASIC3-containing channels; also recorded: only known potent and selective inhibitor of ASIC3; also recorded: specific peptide blocker of ASIC3
effect on acid-induced and post-operative pain (in words) [2]: abolish acid-induced and post-operative pain in rats

GTACSCGNSKGIYWFYRPSCPTDRGYTGSCRYFLGTCCTPAD (disulfide 4-37, 6-30, 20-38) [rAPETx2]
IC50 (rat ASIC3): 80 nM

Cc1nc(NC(=N)N)nc2ccccc12 [GMQ, 2-guanidine-4-methylquinazoline]
ASIC3 agonism (in words) (ASIC3; normal pH): persistent activation at normal pH

[Gd] [gadolinium]
potency and specificity of ASIC3 inhibition (in words) (ASIC3): neither potent nor specific

N=C(N)NC(=O)c1nc(Cl)c(N)nc1N [amiloride]
potency and specificity of ASIC3 inhibition (in words) (ASIC3): neither potent nor specific

Reference: publication PMC3407934, “Functional Expression in Escherichia coli of the Disulfide-Rich Sea Anemone Peptide APETx2, a Potent Blocker of Acid-Sensing Ion Channel 3” (Marine Drugs, 2012)
